In PubChem BioAssay AID330 (DTP/NCI, 2004):
Where “and” joins values, the source holds several entries; their conditions need not be identical. Identical values can stand only once. Inconclusive results and toxic doses are left out. Rule for the calls: active = survival T/C of 150% or more; inactive = T/C below 125% in these data. Square brackets hold non-standard residues; d marks the D form. Peptide text beside a SMILES is read from it. * marks the point of attachment. ξ: configuration not given here. Cbz = O=C(OCc1ccccc1)*; ξT = CC(O)C(N)C(=O)O

Test system: P388 leukemia ip, CD2F1 mice, survival T/C
Assay: NCI In Vivo Anticancer Drug Screen. Data for tumor model P388 Leukemia (intraperitoneal) in CD2F1 (CDF1) mice
Conditions: endpoint: median survival time, higher = longer survival
Procedure, shortened: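 Mice carrying the transplanted tumor received test compound or vehicle. Survival was recorded in each group, and the value is the treated-group measurement divided by that of the vehicle-treated control group.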

[1] = dose: 6.25 mg/kg/injection, schedule: Q01DX009 (ip), vehicle: Klucel (hydroxypropylcellulose) (HPC)
[2] = dose: 12.5 mg/kg/injection, schedule: Q01DX009 (ip), vehicle: Klucel (hydroxypropylcellulose) (HPC)
[3] = dose: 25.0 mg/kg/injection, schedule: Q01DX009 (ip), vehicle: Klucel (hydroxypropylcellulose) (HPC)
[4] = dose: 100.0 mg/kg/injection, schedule: Q01DX001 (ip), vehicle: saline with Tween-80
[5] = dose: 50.0 mg/kg/injection, schedule: Q01DX005 (ip), vehicle: saline with Tween-80
[6] = dose: 100.0 mg/kg/injection, schedule: Q01DX005 (ip), vehicle: saline with Tween-80
[7] = dose: 200.0 mg/kg/injection, schedule: Q01DX005 (ip), vehicle: saline with Tween-80
[8] = dose: 50.0 mg/kg/injection, schedule: Q01DX005 (ip), vehicle: Klucel (hydroxypropylcellulose) (HPC)
[9] = dose: 100.0 mg/kg/injection, schedule: Q01DX005 (ip), vehicle: Klucel (hydroxypropylcellulose) (HPC)
[10] = dose: 200.0 mg/kg/injection, schedule: Q01DX005 (ip), vehicle: Klucel (hydroxypropylcellulose) (HPC)
[11] = dose: 6.25 mg/kg/injection, schedule: Q01DX009 (ip), vehicle: saline with Tween-80
[12] = dose: 25.0 mg/kg/injection, schedule: Q01DX009 (ip), vehicle: saline with Tween-80
[13] = dose: 50.0 mg/kg/injection, schedule: Q01DX009 (ip), vehicle: saline with Tween-80
[14] = dose: 100.0 mg/kg/injection, schedule: Q01DX001 (ip), vehicle: Klucel (hydroxypropylcellulose) (HPC)
[15] = dose: 200.0 mg/kg/injection, schedule: Q01DX001 (ip), vehicle: Klucel (hydroxypropylcellulose) (HPC)
[16] = dose: 400.0 mg/kg/injection, schedule: Q01DX001 (ip), vehicle: Klucel (hydroxypropylcellulose) (HPC)
[17] = dose: 100.0 mg/kg/injection, schedule: Q01DX009 (ip), vehicle: saline with Tween-80
[18] = dose: 200.0 mg/kg/injection, schedule: Q01DX009 (ip), vehicle: saline with Tween-80

Measured: T/C

O=C(O)c1ccc(S(=O)(=O)OCCCl)cc1
inactive: [1] 107 % of control | [2] 100 % of control | [3] 110 % of control

COc1ccc2cc1Oc1ccc(cc1)CC1c3cc(c(OC)cc3CCN1C)Oc1c(OC)c(OC)c(O)c3c1C(C2)N(C)CC3 (stereo not drawn)
inactive: dose: 25.0 mg/kg/injection, schedule: Q01DX001 (ip), vehicle: saline with Tween-80 99 % of control | dose: 50.0 mg/kg/injection, schedule: Q01DX001 (ip), vehicle: saline with Tween-80 105 % of control | [4] 108 % of control and 111 % of control

CC(=O)OCC1OC(n2c(Br)nc3c(N)ncnc32)C(OC(C)=O)C1OC(C)=O (stereo not drawn)
inactive: [5] 103 % of control | [6] 101 % of control | [7] 97 % of control

CC(O)C(NC(=O)OCc1ccccc1)C(=O)NCC(N)=O (stereo not drawn) (Cbz-[ξT]-Gly-NH2)
inactive: [8] 101 % of control | [9] 115 % of control | [10] 101 % of control

Cc1c(O)c2c(c(O)c1Cc1ccc(C#N)cc1)C(=O)c1ccccc1C2=O
inactive: [11] 94 % of control | dose: 12.5 mg/kg/injection, schedule: Q01DX009 (ip), vehicle: saline with Tween-80 91 % of control | [12] 90 % of control | [13] 91 % of control | dose: 200.0 mg/kg/injection, schedule: Q01DX009 (ip), vehicle: Klucel (hydroxypropylcellulose) (HPC) 89 % of control

CC(=O)OCC1OC(S[As](C2CCCCC2)C2CCCCC2)C(OC(C)=O)C(OC(C)=O)C1OC(C)=O (stereo not drawn)
inactive: dose: 25.0 mg/kg/injection, schedule: Q04DX003 (ip), vehicle: Klucel (hydroxypropylcellulose) (HPC) 109 % of control | dose: 50.0 mg/kg/injection, schedule: Q04DX003 (ip), vehicle: Klucel (hydroxypropylcellulose) (HPC) 116 % of control

Cn1c(=O)ccc2c(=O)c3cc(Br)ccc3oc21
inactive: [4] 98 % of control | dose: 200.0 mg/kg/injection, schedule: Q01DX001 (ip), vehicle: saline with Tween-80 107 % of control | dose: 400.0 mg/kg/injection, schedule: Q01DX001 (ip), vehicle: saline with Tween-80 96 % of control

CC(=O)Nc1ccc(S(=O)(=O)NC(CCC(N)=O)C(=O)O)cc1 (stereo not drawn)
inactive: [14] 95 % of control | [15] 100 % of control | [16] 92 % of control

N#CN=C(N)N
inactive: dose: 18.8 mg/kg/injection, schedule: Q01DX005 (ip), vehicle: saline 115 % of control | dose: 37.5 mg/kg/injection, schedule: Q01DX005 (ip), vehicle: saline 112 % of control | dose: 75.0 mg/kg/injection, schedule: Q01DX005 (ip), vehicle: saline 98 % of control | dose: 100.0 mg/kg/injection, schedule: Q01DX005 (ip), vehicle: saline 96 % of control | dose: 150.0 mg/kg/injection, schedule: Q01DX005 (ip), vehicle: saline 105 % of control | dose: 200.0 mg/kg/injection, schedule: Q01DX005 (ip), vehicle: saline 102 % of control | dose: 300.0 mg/kg/injection, schedule: Q01DX005 (ip), vehicle: saline 118 % of control | dose: 400.0 mg/kg/injection, schedule: Q01DX005 (ip), vehicle: saline 99 % of control | dose: 600.0 mg/kg/injection, schedule: Q01DX005 (ip), vehicle: saline 112 % of control | dose: 800.0 mg/kg/injection, schedule: Q01DX005 (ip), vehicle: saline 101 % of control

O=[n+]1c2ccccc2n([O-])c2cn(-c3ccccc3)c(-c3ccccc3)c21
inactive: [5] 100 % of control | [6] 100 % of control | [7] 101 % of control

Cc1ccnc(NS(=O)(=O)c2ccc(N=Nc3nc4[nH]c(N)nc(=S)c4[nH]3)cc2)n1
inactive: dose: 0.2 mg/kg/injection, schedule: Q01DX009 (ip), vehicle: saline with Tween-80 124 % of control | [11] 106 % of control

COc1ccc2nccc(C(=O)CCC3CCN(C(=O)c4ccc([N+](=O)[O-])cc4)CC3C(Br)CBr)c2c1 (stereo not drawn)
inactive: dose: 100.0 mg/kg/injection, schedule: Q04DX002 (ip), vehicle: saline with Tween-80 108 % of control | dose: 200.0 mg/kg/injection, schedule: Q04DX002 (ip), vehicle: saline with Tween-80 105 % of control

Cc1cc(C)c(S(=O)(=O)OCC2OC(OC3(COS(=O)(=O)c4c(C)cc(C)cc4C)OC(COS(=O)(=O)c4c(C)cc(C)cc4C)C(O)C3O)C(O)C(O)C2O)c(C)c1 (stereo not drawn)
inactive: [3] 107 % of control | dose: 50.0 mg/kg/injection, schedule: Q01DX009 (ip), vehicle: Klucel (hydroxypropylcellulose) (HPC) 99 % of control

CC(N)(Cc1ccc(O)c(O)c1)C(=O)O (stereo not drawn)
inactive: dose: 50.0 mg/kg/injection, schedule: Q01DX009 (ip), vehicle: saline 99 % of control and 107 % of control and 110 % of control | dose: 100.0 mg/kg/injection, schedule: Q01DX009 (ip), vehicle: saline 99 % of control and 102 % of control and 112 % of control | dose: 200.0 mg/kg/injection, schedule: Q01DX009 (ip), vehicle: saline 108 % of control and 96 % of control | dose: 400.0 mg/kg/injection, schedule: Q01DX009 (ip), vehicle: saline 105 % of control and 109 % of control and 115 % of control | dose: 600.0 mg/kg/injection, schedule: Q01DX009 (ip), vehicle: saline 114 % of control and 121 % of control and 94 % of control

CCOC(=O)CC1=CS/C(=C(\C#N)C(=O)OCC)N1c1ccccc1
inactive: [5] 100 % of control | [6] 100 % of control | [7] 100 % of control

O=C(c1ccco1)N1CCN(C(=O)c2ccco2)CC1
inactive: [5] 104 % of control | [6] 96 % of control | [7] 100 % of control

CC(C)CCc1cc(O)ccc1O
inactive: [12] 114 % of control | [13] 101 % of control | [17] 98 % of control | [18] 97 % of control

N#C[S-].N#C[S-].[Au+3].[Au+3].[CH3-].[CH3-].[CH3-].[CH3-]
inactive: dose: 50.0 mg/kg/injection, schedule: Q04DX003 (ip), vehicle: saline with Tween-80 100 % of control | dose: 100.0 mg/kg/injection, schedule: Q04DX003 (ip), vehicle: saline with Tween-80 120 % of control

CC1CCC(C(C)C2C(O)CC3C4CCC5CC(N)CCC5(C)C4CCC32C)=NC1 (stereo not drawn) (tested in a mixture with another compound)
inactive: [1] 100 % of control | [2] 94 % of control | [3] 105 % of control

Cc1ccc(NC(=O)N2CCCCC2)cc1[N+](=O)[O-]
inactive: [8] 99 % of control | [9] 98 % of control | [10] 96 % of control

O=CNc1ccc2c(c1)Cc1cc(Br)ccc1-2
inactive: [12] 93 % of control | [13] 98 % of control | [17] 93 % of control | [18] 88 % of control

CCCCCNc1ncnc2c1ncn2C1OC(CO)C(O)C1O (stereo not drawn)
inactive: dose: 12.5 mg/kg/injection, schedule: Q04DX003 (ip), vehicle: saline 97 % of control | dose: 25.0 mg/kg/injection, schedule: Q04DX003 (ip), vehicle: saline 108 % of control | dose: 50.0 mg/kg/injection, schedule: Q04DX003 (ip), vehicle: saline 102 % of control | dose: 100.0 mg/kg/injection, schedule: Q04DX003 (ip), vehicle: saline 104 % of control

Cc1ccc(OP(=O)(Oc2ccc(C)cc2)Oc2ccc(C)cc2)cc1.Cc1ccc(OP(=O)(Oc2ccc(C)cc2)Oc2ccc(C)cc2)cc1.Cc1ccc(OP(=O)(Oc2ccc(C)cc2)Oc2ccc(C)cc2)cc1.Cc1ccc(OP(=O)(Oc2ccc(C)cc2)Oc2ccc(C)cc2)cc1.[Nd+3].[O-][Cl+3]([O-])([O-])O
inactive: [14] 90 % of control | [15] 91 % of control | [16] 86 % of control
